From patent US20120264685A1 (priority 2009, published 2012)
Where a SMILES comes first, the peptide text is derived from it. Where no end group is shown, it is not given here. [ ]: non-standard residue; d: D form. ξ: configuration not given here. ξαMeBip(2'-Et,4'-OMe) = CCc1cc(OC)ccc1-c1ccc(CC(C)(N)C(=O)O)cc1; Bip(2'-Et-4'-OMe) = CCc1cc(OC)ccc1-c1ccc(C[C@H](N)C(=O)O)cc1; ξαMePhe(2,6-F2) = CC(N)(Cc1c(F)cccc1F)C(=O)O; αMePhe(2-F) = C[C@](N)(Cc1ccccc1F)C(=O)O; ξαMe(hhPhe) = CC(N)(CCCc1ccccc1)C(=O)O; ξαMePhe(2-F) = CC(N)(Cc1ccccc1F)C(=O)O; αMeD = C[C@](N)(CC(=O)O)C(=O)O; ξhhPhe = NC(CCCc1ccccc1)C(=O)O; ξαMeD = CC(N)(CC(=O)O)C(=O)O; αMeAPPA = not defined here; αMeS = C[C@](N)(CO)C(=O)O; Aib = CC(C)(N)C(=O)O

Experiments:
DPP IV enzyme = DPP IV enzyme (Homo sapiens, UniProt P27487); assay: Stability against DPP IV enzyme; assay type: in vitro ADME; details: 2 μM, 37° C.; for half-life: read-out: half-life (t1/2) with DPP-IV enzyme
[1] = Stability in human plasma; assay type: in vitro ADME; details: 2 μM, 37° C.; for half-life: human, plasma, read-out: half-life (t1/2) in human plasma
[2] = Stability in liver microsomes; assay type: in vitro ADME, human; details: 2 μM, 37° C.; for half-life: human, microsomes, read-out: half-life (t1/2) in liver microsomes
Protocol: (§1) Reactions were terminated by the addition of TFA/H2O ([…], 10% (v/v)). […] The column was equilibrated with TFA/H20, at a flow rate of 1 mL/min. […] The absorbance was monitored at 206 nm using UV detector and peaks were collected manually prior to ESI-MS analysis.

[3] = tested on: RIN5F (Rat Insulinoma) cells; assay: In vitro glucose-dependent insulin secretion (RIN5F cell assay); assay type: cell-based; details: 16.7-mM glucose load, n = 3, mean ± S.D.
Summary of the method: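 Rat RIN5F cells were preincubated 40 min in Krebs-Ringer buffer with 1.1 mM glucose and 0.5% BSA, pH 7.4, then exposed to test peptidomimetics for 30 min at 37 °C with 16.7 mM or 0 mM glucose. Supernatant insulin was measured by rat insulin ELISA and normalised to total protein (BCA), as pg/μg.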

[4] = Stability in simulated intestinal fluid; assay type: in vitro ADME; details: 2 μM, 37° C.; for % degradation in 24 h when incubated with simulated intestinal fluid: pH 7.5, 24 h
Protocol: as §1

[5] = Stability in simulated gastric fluid; assay type: in vitro ADME; details: 2 μM, 37° C.; for % degradation in 24 h when incubated with simulated gastric fluid: pH 1.5, 24 h
Protocol: as §1

human GLP-1 receptor = human GLP-1 receptor (human, UniProt P43220 24-463); assay: cell-based or functional assay

DPP IV enzyme, sequence (P27487 whole entry, species assumed): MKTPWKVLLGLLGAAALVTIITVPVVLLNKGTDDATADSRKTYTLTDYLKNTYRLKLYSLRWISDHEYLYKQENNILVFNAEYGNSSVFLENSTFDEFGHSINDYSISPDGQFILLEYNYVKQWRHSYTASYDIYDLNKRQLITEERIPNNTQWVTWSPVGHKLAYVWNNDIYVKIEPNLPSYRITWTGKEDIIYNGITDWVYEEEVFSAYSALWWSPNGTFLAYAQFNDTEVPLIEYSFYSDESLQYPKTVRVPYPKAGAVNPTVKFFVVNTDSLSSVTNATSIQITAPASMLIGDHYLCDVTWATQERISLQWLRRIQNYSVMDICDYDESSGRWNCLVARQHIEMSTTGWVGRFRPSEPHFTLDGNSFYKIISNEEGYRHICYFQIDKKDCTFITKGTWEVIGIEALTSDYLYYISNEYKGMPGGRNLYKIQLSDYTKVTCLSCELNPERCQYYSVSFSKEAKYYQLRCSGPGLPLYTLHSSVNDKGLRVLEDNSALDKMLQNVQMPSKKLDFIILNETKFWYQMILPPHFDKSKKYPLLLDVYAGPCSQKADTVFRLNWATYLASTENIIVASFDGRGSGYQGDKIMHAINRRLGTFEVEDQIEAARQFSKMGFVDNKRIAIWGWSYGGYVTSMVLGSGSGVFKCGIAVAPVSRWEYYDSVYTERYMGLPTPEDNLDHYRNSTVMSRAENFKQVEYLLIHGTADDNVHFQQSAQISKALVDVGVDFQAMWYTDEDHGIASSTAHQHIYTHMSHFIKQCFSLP

| Molecule | % degradation in 24 h when incubated with DPP-IV enzyme (DPP IV enzyme) | half-life (DPP IV enzyme) | % degradation in 24 h when incubated with human plasma [1] | half-life [1] | % degradation in 24 h when incubated with liver microsomes [2] | half-life [2] | Insulin secretion ([3]; 0.1 nM test compd.) | Insulin secretion ([3]; 1 nM test compd.) | Insulin secretion ([3]; 10 nM test compd.) | half-life (t1/2) in simulated intestinal fluid ([4]; pH 7.5) | % degradation in 24 h when incubated with simulated intestinal fluid [4] | half-life (t1/2) in simulated gastric fluid ([5]; pH 1.5) | % degradation in 24 h when incubated with simulated gastric fluid [5] | half-life ([4]; simulated gi fluid, pH 7.5, read-out: half-life (t1/2) in simulated intestinal fluid) | half-life ([5]; simulated gi fluid, pH 1.5, read-out: half-life (t1/2) in simulated gastric fluid) | EC50, in-vitro human GLP-1 receptor agonistic activity (cAMP) (human GLP-1 receptor) |
| --- | --- | --- | --- | --- | --- | --- | --- | --- | --- | --- | --- | --- | --- | --- | --- | --- |
| CCc1cc(OC)ccc1-c1ccc(CC(C)(NC(=O)C(C)(CC(=O)O)NC(=O)[C@H](CO)NC(=O)[C@@H](NC(=O)C(C)(Cc2ccccc2F)NC(=O)[C@@H](NC(=O)CNC(=O)[C@H](CCC(N)=O)NC(=O)C(C)(C)NC(=O)[C@H](Cc2c[nH]cn2)NC(=O)[C@@H](N)C(C)C)[C@@H](C)O)[C@@H](C)O)C(=O)NC(C)(CCCc2ccccc2)C(N)=O)cc1 (stereo partly shown) [compound 191] (H-VH[Aib]QGT[ξαMePhe(2-F)]TS[ξαMeD][ξαMeBip(2'-Et,4'-OMe)][ξαMe(hhPhe)]-NH2) | 76% | 9 h | 78% | 8 h | 79% | 1 h | 16.1 ± 0.22 pg/µg/h | 22.1 ± 0.26 pg/µg/h | 36.0 ± 0.36 pg/µg/h | (6) h | 55% | (8) h | 12% | – | – | – |
| CCc1cc(OC)ccc1-c1ccc(CC(C)(NC(=O)C(C)(CC(=O)O)NC(=O)[C@H](CO)NC(=O)[C@@H](NC(=O)C(C)(Cc2c(F)cccc2F)NC(=O)[C@@H](NC(=O)CNC(=O)[C@H](CCC(=O)O)NC(=O)[C@H](CO)NC(=O)[C@H](Cc2c[nH]cn2)NC(=O)[C@@H](N)C(C)C)[C@@H](C)O)[C@@H](C)O)C(=O)NC(C)(CCCc2ccccc2)C(N)=O)cc1 (stereo partly shown) [compound 201] (H-VHSEGT[ξαMePhe(2,6-F2)]TS[ξαMeD][ξαMeBip(2'-Et,4'-OMe)][ξαMe(hhPhe)]-NH2) | 75% | 9 h | 77% | 8 h | 81% | 1 h | 15.4 ± 0.14 pg/µg/h | 21.2 ± 0.18 pg/µg/h | 35.6 ± 0.17 pg/µg/h | (6) h | 45% | (8) h | 14% | – | – | – |
| CCc1cc(OC)ccc1-c1ccc(CC(C)(NC(=O)[C@H](CC(=O)O)NC(=O)[C@H](CO)NC(=O)[C@@H](NC(=O)[C@H](Cc2ccccc2)NC(=O)[C@@H](NC(=O)CNC(=O)[C@H](CCC(N)=O)NC(=O)[C@H](CO)NC(=O)[C@H](Cc2c[nH]cn2)NC(=O)[C@@H](NC(=O)[C@@H](N)C(C)C)C(C)C)[C@@H](C)O)[C@@H](C)O)C(=O)NC(CCCc2ccccc2)C(N)=O)cc1 (stereo partly shown) [compound 205] (H-VVHSQGTFTSD[ξαMeBip(2'-Et,4'-OMe)][ξhhPhe]-NH2) | 00% | > 24 h | 00% | > 24 h | 84% | 2 h | 12.6 ± 0.25 pg/µg/h | 15.3 ± 0.31 pg/µg/h | 29.7 ± 0.48 pg/µg/h | – | 00% | – | 43% | > 24 h | 4 h | – |
| VH[Aib]EGT[αMePhe(2-F)]T[αMeS][αMeD][Bip(2'-Et-4'-OMe)][αMeAPPA] (not fully specified (C-terminus); reading uncertain) [Seq. ID. No. 121] | – | – | – | – | – | – | – | – | – | – | – | – | – | – | – | 8 nM |
